Assay results reported in patent US12384797B2, “Thioeno[3,2-b] pyridin-7-amine compounds for treating familial dysautonomia” (PTC THERAPEUTICS, INC., priority 2019, dated 2025).

The compounds below were run on Elongator complex protein 1 (ELP1, also referred to as IKBKAP) (assay: IKBKAP-HTRF assay (IKBKAP protein in lysates of FD patient-derived fibroblasts)). Details: 48 hours incubation, 7-point concentration curve.
Type: cell-based, human
Description: The assay is used for the quantitative determination of Elongator complex protein 1 (ELP1, also referred to as IKBKAP) concentration in cell lysates using the HTRF® (Homogeneous Time-Resolved Fluorescence) technology. IKBKAP is detected in a sandwich HTRF assay by use of an anti-IKAP antibody labeled with a donor and an anti-IKAP antibody labeled with an acceptor.
Cells were thawed and incubated in DMEM-10% FBS for 72 hours. Cells were trypsinized, counted, and re-suspended to a concentration of 50,000 cells/mL in DMEM-10% FBS. A 199 μL aliquot of the cell suspensions were plated at 10,000 cells per well in a 96 well microtiter plate and incubated for 3 to 5 hours. […] Test compounds were serially diluted 3.16-fold in 100% DMSO to generate a 7-point concentration curve. A 1 μL aliquot of 200× compound solution was transferred to cell-containing wells, and cells were incubated for 48 hours in a cell culture incubator (37° C., 5% CO2, 100% relative humidity). Triplicate samples were set up for each compound concentration. After 48 hours, the supernatant was removed from the cells and 50 μL of the 1×LB4 lysis buffer, containing protease inhibitors, was added to the cells and incubated with shaking at room temperature for 1 hour. A 36 μL aliquot of this lysate was subsequently transferred to the 384-well plate containing 4 μL of the antibody solution (1:50 dilution of anti IKAP d2 and anti-IKAP K(9+8) in detection buffer). The 384-well plate was then centrifuged for 1 minute to bring the solutions to the bottom of the plate and incubated overnight at 4° C. Fluorescence for each well of the plate at 665 nm and 620 nm was measured was on the EnVision plate reader (Perkin Elmer). The ΔF for each sample is calculated by:
[formula] wherein Signal is the normalized fluorescence for each sample well and Blank is the average normalized average fluorescence for the Blank control wells.
The maximum fold increase (MFI) in IKBKAP protein abundance for compounds of Formula (I) or a form thereof relative to the vehicle control are provided in Table 1. MFI was calculated by dividing the ΔF value for each sample well by the sample ΔF for the vehicle control wells.
The EC2x for IKBKAP protein expression obtained from the 7-point concentration curve generated for each test compound according to the protocol in Biological Example 1 are also provided in Table 1. The term “EC2x for IKBKAP protein expression” is defined as the concentration of test compound that is effective in producing two times the amount of IKBKAP protein in a FD patient cell compared to the amount produced from the DMSO vehicle control.

| Compound | EC2x for IKBKAP protein expression (concentration producing two times the amount of IKBKAP protein vs DMSO vehicle control) | MFI (maximum fold increase in IKBKAP protein abundance relative to the vehicle control) |
| --- | --- | --- |
| C[S+]([O-])C[C@H](N)Cc1sc2c(NCc3ccco3)cc(Cl)nc2c1Cl (stereo partly drawn) [Compound 167, [(2R)-2-amino-3-(3,5-dichloro-7-{[(furan-2-yl)methyl]amino}thieno[3,2-b]pyridin-2-yl)propyl](methyl)sulfaniumolate] | ***** (≤0.005 μM is indicated by five stars (*****)) | ***** (>4.9 is indicated by five stars (*****)) |
| N[C@@H](CO)Cc1sc2c(NCc3ccco3)cc(Cl)nc2c1Br [Compound 41, (2R)-2-amino-3-(3-bromo-5-chloro-7-{[(furan-2-yl)methyl]amino}thieno[3,2-b]pyridin-2-yl)propan-1-ol] | ***** (≤0.005 μM is indicated by five stars (*****)) | ***** (>4.9 is indicated by five stars (*****)) |
| C[C@H](N)Cc1sc2c(NCc3cccs3)cc(C#N)nc2c1C#N [Compound 102, 2-[(2S)-2-aminopropyl]-7-{[(thiophen-2-yl)methyl]amino}thieno[3,2-b]pyridine-3,5-dicarbonitrile] | ***** (≤0.005 μM is indicated by five stars (*****)) | ***** (>4.9 is indicated by five stars (*****)) |
| C[C@H](N)C(=O)c1sc2c(NCc3ccco3)cc(Cl)nc2c1Br [Compound 157, (2S)-2-amino-1-(3-bromo-5-chloro-7-{[(furan-2-yl)methyl]amino}thieno[3,2-b]pyridin-2-yl)propan-1-one] | *** (between >0.02 μM and ≤0.5 μM is indicated by three stars (***)) | **** (between >3.9 and ≤4.9 is indicated by four stars (****)) |
| N[C@@H](CF)Cc1sc2c(NCc3cccs3)cc(Cl)nc2c1Cl [Compound 84, 2-[(2R)-2-amino-3-fluoropropyl]-3,5-dichloro-N-[(thiophen-2-yl)methyl]thieno[3,2-b]pyridin-7-amine] | ***** (≤0.005 μM is indicated by five stars (*****)) | ***** (>4.9 is indicated by five stars (*****)) |
| N[C@@H](CCF)Cc1sc2c(NCc3cccs3)cc(Cl)nc2c1Cl [Compound 98, 2-[(2S)-2-amino-4-fluorobutyl]-3,5-dichloro-N-[(thiophen-2-yl)methyl]thieno[3,2-b]pyridin-7-amine] | ***** (≤0.005 μM is indicated by five stars (*****)) | ***** (>4.9 is indicated by five stars (*****)) |
| Cc1c(C[C@@H](N)C(=O)Nc2ccc(C#N)cc2)sc2c(NCc3ccco3)cc(Cl)nc12 [Compound 133, 3-(5-chloro-7-{[(furan-2-yl)methyl]amino}-3-methylthieno[3,2-b]pyridin-2-yl)-N-(4-cyanophenyl)-D-alaninamide] | ***** (≤0.005 μM is indicated by five stars (*****)) | ***** (>4.9 is indicated by five stars (*****)) |
| N[C@H](CF)Cc1sc2c(NCc3nccs3)cc(Cl)nc2c1Br [Compound 66, 2-[(2S)-2-amino-3-fluoropropyl]-3-bromo-5-chloro-N-[(1,3-thiazol-2-yl)methyl]thieno[3,2-b]pyridin-7-amine] | *** (between >0.02 μM and ≤0.5 μM is indicated by three stars (***)) | * (An MFI≤1.9 is indicated by one star (*)) |
| Cc1c([C@H](C)[C@H](C)N)sc2c(NCc3ccco3)cc(Cl)nc12 [Compound 150, 2-[(2R,3S)-3-aminobutan-2-yl]-5-chloro-N-[(furan-2-yl)methyl]-3-methylthieno[3,2-b]pyridin-7-amine] | ***** (≤0.005 μM is indicated by five stars (*****)) | ***** (>4.9 is indicated by five stars (*****)) |
| Clc1cc(NCc2ccco2)c2scc(Br)c2n1 [Compound 7, 3-bromo-5-chloro-N-[(furan-2-yl)methyl]thieno[3,2-b]pyridin-7-amine] | *** (between >0.02 μM and ≤0.5 μM is indicated by three stars (***)) | ***** (>4.9 is indicated by five stars (*****)) |
| Cc1c(C[C@@H](N)CS(C)(=O)=O)sc2c(NCc3ccco3)cc(Cl)nc12 [Compound 108, 2-[(2R)-2-amino-3-(methanesulfonyl)propyl]-5-chloro-N-[(furan-2-yl)methyl]-3-methylthieno[3,2-b]pyridin-7-amine] | **** (between >0.005 μM and ≤0.02 μM is indicated by four stars (****)) | ***** (>4.9 is indicated by five stars (*****)) |
| CNCc1cc2nc(Cl)cc(NCc3ccco3)c2s1 [Compound 25, 5-chloro-N-[(furan-2-yl)methyl]-2-[(methylamino)methyl]thieno[3,2-b]pyridin-7-amine] | *** (between >0.02 μM and ≤0.5 μM is indicated by three stars (***)) | *** (between >2.9 and ≤3.9 is indicated by three stars (***)) |
| CSC[C@H](N)Cc1sc2c(NCc3ccco3)cc(Cl)nc2c1Cl [Compound 114, 2-[(2R)-2-amino-3-(methylsulfanyl)propyl]-3,5-dichloro-N-[(furan-2-yl)methyl]thieno[3,2-b]pyridin-7-amine] | ***** (≤0.005 μM is indicated by five stars (*****)) | ***** (>4.9 is indicated by five stars (*****)) |
| N[C@@H](CCF)Cc1sc2c(NCc3ccco3)cc(Cl)nc2c1Cl [Compound 93, 2-[(2S)-2-amino-4-fluorobutyl]-3,5-dichloro-N-[(furan-2-yl)methyl]thieno[3,2-b]pyridin-7-amine] | ***** (≤0.005 μM is indicated by five stars (*****)) | ***** (>4.9 is indicated by five stars (*****)) |
| 2-[(2S)-2-aminobutyl]-5-chloro-3-cyclopropyl-N-[(thiophen-2-yl)methyl]thieno[3,2-b]pyridin-7-amine [Compound 75] | *** (between >0.02 μM and ≤0.5 μM is indicated by three stars (***)) | ***** (>4.9 is indicated by five stars (*****)) |
| C[C@H](N)C(F)(F)c1sc2c(NCc3cccs3)cc(Cl)nc2c1Cl [Compound 132, 2-[(2S)-2-amino-1,1-difluoropropyl]-3,5-dichloro-N-[(thiophen-2-yl)methyl]thieno[3,2-b]pyridin-7-amine] | **** (between >0.005 μM and ≤0.02 μM is indicated by four stars (****)) | ***** (>4.9 is indicated by five stars (*****)) |
| Cc1c(C(C)CN)sc2c(NCc3ccco3)cc(Cl)nc12 (centres unmarked) [Compound 148, 2-(1-aminopropan-2-yl)-5-chloro-N-[(furan-2-yl)methyl]-3-methylthieno[3,2-b]pyridin-7-amine] | ***** (≤0.005 μM is indicated by five stars (*****)) | **** (between >3.9 and ≤4.9 is indicated by four stars (****)) |
| CC(C)C[C@H](N)Cc1sc2c(NCc3nccs3)cc(Cl)nc2c1Br [Compound 62, 2-[(2S)-2-amino-4-methylpentyl]-3-bromo-5-chloro-N-[(1,3-thiazol-2-yl)methyl]thieno[3,2-b]pyridin-7-amine] | ***** (≤0.005 μM is indicated by five stars (*****)) | ***** (>4.9 is indicated by five stars (*****)) |
| Clc1cc(NCc2ccco2)c2scc(Cl)c2n1 [Compound 6, 3,5-dichloro-N-[(furan-2-yl)methyl]thieno[3,2-b]pyridin-7-amine] | *** (between >0.02 μM and ≤0.5 μM is indicated by three stars (***)) | ***** (>4.9 is indicated by five stars (*****)) |
